Article PMC9271048, “Probing strigolactone perception mechanisms with rationally designed small-molecule agonists stimulating germination of root parasitic weeds” (Nature Communications, 2022)
Like-named read-outs stand apart in the source and are kept apart here.

Assays:
ShHTL7 [1] = molecular target: T1, ShHTL7 (Striga hermonthica, UniProt A0A0M3PNA2); experiment: biochemical; assay type: binding
Experimental: We used a sensitive, high-throughput Surface plasmon resonance (SPR) method to examine the binding affinities of the 51 candidates to the recombinant ShHTL7 protein, which was immobilized on the CM5 sensor chip. rac-GR24 was used as a positive control.
The interactions of small molecules with recombinant ShHTL7 were evaluated using the Biacore T200 system (GE Healthcare, USA) at 25 °C[47]. The purified ShHTL7 protein was immobilized on a CM5 sensor chip using the standard amine coupling procedure. […] PBS-P (10 mM phosphate buffer, 2.7 mM KCl, 137 mM NaCl, 0.05% Surfactant P20) containing 0.5% DMSO was used as the running buffer. For the screening experiments, candidates with different structures at 50 μM in the running buffer were injected individually at a flow rate of 30 μL min^−1. For binding affinity studies, compounds with different concentrations in running buffer were used. During the experiments, both the contact and dissociation times were set as 1 min. Data analysis was performed using the Biacore Evaluation Software (T200 Version 2.0). The affinity values (KD) were obtained by the kinetics analysis or the steady-state affinity method.

ShHTL7 [2] = molecular target: T1, ShHTL7; experiment: Competitive inhibition of ShHTL7 with Yoshimulactone Green (YLG) as substrate; assay type: biochemical
Experimental: Based on the structural feature of the lead compound 2h, we selected three regions to perform further modification (Supplementary Fig. 6), to try to further improve bioactivity. Insertion of a carbonyl group between the bicyclo[2.2.1]hept-5-en-2-yl group and the piperazine ring was detrimental to binding affinity (Supplementary Fig. 6, region A). Removal of an oxygen atom in region B was found unfavorable to binding affinity as well. Therefore, we focused on modifying the benzene ring (region C) for 2h. A series of compounds with different groups at region C was synthesized (Supplementary Scheme 1). […] As SPR just measures the binding ability, another independent assay by using Yoshimulactone Green (YLG) as the fluorescent substrate was performed to determine the half-maximal inhibitory concentration (IC50) of these compounds against ShHTL7[22].
The excitation and emission wavelengths of YLG are 480 and 520 nm, respectively. We used a fluorescence spectrophotometer (CARY Eclipse) to detect the fluorescence intensity change of YLG during the enzymatic hydrolysis assay process. All the testing compounds and YLG were dissolved in DMSO and prepared as stock solutions just before use. […] The changes of fluorescence at 520 nm of each well were recorded every 1 min for 30 min. Using the reaction mixture without adding enzyme and tested compounds as the background control. After subtracting the background hydrolysis, a linear fluorescence increase in 8 min was used for further inspection. The IC50 values were determined via fitting relative inhibition percentages with the varying concentrations of compounds in Microsoft Excel.

P. aegyptiaca seeds = experiment: P. aegyptiaca seed germination assay; assay type: in vivo, Phelipanche aegyptiaca; design: P. aegyptiaca germination EC50 values, source data average: unit not given here; settings: for P. aegyptiaca germination(%): Supplementary Table 1, compounds tested at 10 μM, means ± SD, n = 3
Experimental: P. aegyptiaca seeds were harvested from Xinjiang province, China in 2017. The seeds were surface sterilized using 1% NaClO solution for 2 min and then washed with distilled water six times. For seed germination assay, about 20 pieces of glass fiber-filter paper discs (15 mm diameter, Whatman GF/B) were placed separately on two layers of filter papers (9 cm diameter, Whatman) in a Petri dish. Five milliliters of distilled water was added to each Petri dish to wet the papers. Approximately 40–90 sterilized seeds were spread onto each glass fiber-filter paper disc. After the seeds were conditioned in the dark at 25 °C for 4 days[48], glass fiber-filter paper discs were blotted dry on filter papers (9 cm) and transferred to the wells of 24-well cell culture plates. The testing compounds were dissolved in acetone and diluted with H2O (VH2O/Vacetone = 999/1) just before use[49]. rac-GR24 and 1‰ acetone solution were used as positive and negative controls, respectively. One hundred microliters of the test solution was added to each well of the plates, and all treatments were performed in three biological repeats. The plates were sealed and incubated in the dark at 25 °C for a week. The experiments were performed at least three times. The germinated seeds were observed by using an electronic magnifier at ×20 magnification.

[3] = YLG as substrate, text and Fig. 2, read-out: IC50, competitive ShHTL7 inhibition (YLG assay)
[4] = wild-type ShHTL7, average of 3, source data of Fig. 2a,b, Supplementary Figs. 8a, 9a, 20b, read-out: IC50, competitive ShHTL7 inhibition (YLG), source data average
[5] = recombinant ShHTL7 immobilized on CM5 chip, 25 °C, read-out: KD (SPR)
[6] = Supplementary Table 7, binding affinities between ShHTL7 and agonists by SPR, read-out: KD/μM
[7] = source data of Fig. 2c and Supplementary Fig. 8b, average of 3
[8] = YLG used as the substrate, means ± SD, n = 3, read-out: IC50 (Supplementary Table 1)

T1 sequence (A0A0M3PNA2 entry or part of it): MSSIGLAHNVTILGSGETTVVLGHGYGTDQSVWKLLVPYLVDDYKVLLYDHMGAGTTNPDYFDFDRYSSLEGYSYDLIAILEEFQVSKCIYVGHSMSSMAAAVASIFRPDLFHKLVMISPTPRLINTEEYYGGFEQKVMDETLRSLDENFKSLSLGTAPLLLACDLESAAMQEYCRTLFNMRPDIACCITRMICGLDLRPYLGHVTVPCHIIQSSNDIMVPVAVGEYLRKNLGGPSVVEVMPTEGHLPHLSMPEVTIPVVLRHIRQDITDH

CC1=CC(OC(=O)N2CCN(C(=O)COc3c(F)c(F)c(F)c(F)c3F)CC2)OC1=O (stereo not shown) [4b]
Kd (ShHTL7 [1]): 2.21 ± 0.42 µM | IC50 (ShHTL7 [2]; [3]): 3.03 ± 0.58 µM | IC50 (ShHTL7 [2]; [4]): 3.03 µM | EC50 (P. aegyptiaca seeds; Phelipanche aegyptiaca, read-out: EC50, P. aegyptiaca seed germination): ~0.0552 µM | EC50 (P. aegyptiaca seeds; Phelipanche aegyptiaca, source data of Fig. 2c and Supplementary Fig. 8b, average of 3, read-out: P. aegyptiaca germination EC50 values, source data average (converted)): 0.0482 µM

Cc1cccc(OCC(=O)N2CCN(CC3CC4C=CC3C4)CC2)c1 (stereo not shown) [2f]
Kd (ShHTL7 [1]): 11.2 ± 0.16 µM | IC50 (ShHTL7 [2]; IC50 (Supplementary Table 1), YLG used as the substrate, means ± SD, n = 3): 10.7 ± 0.96 µM | germination of P. aegyptiaca seeds, source data average (P. aegyptiaca seeds; 10 μM, Fig. 1d source data, average of 3): 18.7364% | P. aegyptiaca germination(%) (P. aegyptiaca seeds): 20.5%

O=C(c1ccco1)N1CCN(CC2CC3C=CC2C3)CC1 (stereo not shown) [2a]
Kd (ShHTL7 [1]; [5]): 12.8 ± 0.6 µM

CC1=CC(OC(=O)N2CCN(C(=O)COc3ccc(F)cc3C)CC2)OC1=O (stereo not shown) [4d]
Kd (ShHTL7 [1]; [6]): 0.82 ± 0.26 µM | IC50 (ShHTL7 [2]; [4]): 3.78 µM | P. aegyptiaca germination EC50 values, source data average (P. aegyptiaca seeds; [7]): 8.181

CCCCOc1ccc(S(=O)(=O)N2CCN(C(=O)OC3C=C(C)C(=O)O3)CC2)cc1 (stereo not shown) [SPL7, reference compound]
Kd (ShHTL7 [1]; [6]): 4.81 ± 0.02 µM | IC50 (ShHTL7 [2]; [4]): 4.31 µM | P. aegyptiaca germination EC50 values, source data average (P. aegyptiaca seeds; [7]): 7.443

O=C(COc1cc(Cl)ccc1Cl)N1CCN(CC2CC3C=CC2C3)CC1 (stereo not shown) [3k]
IC50 (ShHTL7 [2]; [8]): 32.2 ± 1.99 µM | P. aegyptiaca germination(%) (P. aegyptiaca seeds): 43.5%

O=C(COc1ccc([N+](=O)[O-])cc1)N1CCN(CC2CC3C=CC2C3)CC1 (stereo not shown) [3p]
IC50 (ShHTL7 [2]; [8]): 15.6 ± 0.37 µM | P. aegyptiaca germination(%) (P. aegyptiaca seeds): 18.6%

O=C(C(c1ccccc1)c1ccccc1)N1CCN(CC2CC3C=CC2C3)CC1 (stereo not shown) [2d]
Kd (ShHTL7 [1]): 5.22 ± 0.66 µM

O=C(COc1ccc([N+](=O)[O-])cc1Cl)N1CCN(CC2CC3C=CC2C3)CC1 (stereo not shown) [3i]
IC50 (ShHTL7 [2]; [8]): 11.6 ± 0.61 µM | P. aegyptiaca germination(%) (P. aegyptiaca seeds): 33.5%

Cc1cc(Cl)ccc1OCC(=O)N1CCN(CC2CC3C=CC2C3)CC1 (stereo not shown) [3e]
Kd (ShHTL7 [1]; [5]): 0.65 µM | IC50 (ShHTL7 [2]; [8]): 8.28 ± 1.12 µM | P. aegyptiaca germination(%) (P. aegyptiaca seeds): 7.0%

Cc1cc([N+](=O)[O-])ccc1OCC(=O)N1CCN(CC2CC3C=CC2C3)CC1 (stereo not shown) [3h]
IC50 (ShHTL7 [2]; [8]): 10 ± 0.59 µM | P. aegyptiaca germination(%) (P. aegyptiaca seeds): 22.0%

Cc1ccccc1OCC(=O)N1CCN(CC2CC3C=CC2C3)CC1 (stereo not shown) [3m]
IC50 (ShHTL7 [2]; [8]): 9.16 ± 1.2 µM | P. aegyptiaca germination(%) (P. aegyptiaca seeds): 29.7%

O=C(COc1ccc(C(F)(F)F)cc1)N1CCN(CC2CC3C=CC2C3)CC1 (stereo not shown) [3n]
IC50 (ShHTL7 [2]; [8]): 12.8 ± 2.97 µM | P. aegyptiaca germination(%) (P. aegyptiaca seeds): 47.8%

CC1=CC(OC(=O)N2CCN(CC3CC4C=CC3C4)CC2)OC1=O (stereo not shown) [4c]
Kd (ShHTL7 [1]; [6]): 13.9 ± 2.6 µM | IC50 (ShHTL7 [2]; [3]): 4.56 ± 0.78 µM | IC50 (ShHTL7 [2]; [4]): 4.56 µM | EC50 (P. aegyptiaca seeds; in vivo, read-out: EC50, P. aegyptiaca seed germination): 0.00226 µM | P. aegyptiaca germination EC50 values, source data average (P. aegyptiaca seeds; [7]): 8.757

COc1cc(C(=O)N2CCN(CC3CC4C=CC3C4)CC2)cc(OC)c1OC (stereo not shown) [2c]
Kd (ShHTL7 [1]): 6.66 ± 0.2 µM

O=C(COc1ccc(Cl)cc1)N1CCN(CC2CC3C=CC2C3)CC1 (stereo not shown) [3o]
IC50 (ShHTL7 [2]; [8]): 22 ± 2.43 µM | P. aegyptiaca germination(%) (P. aegyptiaca seeds): 21.4%
